Measured values taken from PubChem BioAssay AID588645 (Sanford-Burnham Center for Chemical Genomics, 2011).
Activity calls are given as the source filed them. How the calls were made is not given here.

What follows are compounds tested against Intestinal-type alkaline phosphatase (Homo sapiens) (UniProt P09923) (assay: inhibition of human intestinal alkaline phosphatase – biochemical, set 2, mouse IAP inhibitor project, SAR follow-up (AID 588645)). Conditions: human intestinal alkaline phosphatase enzymatic inhibition assay.
Chain of Intestinal-type alkaline phosphatase (Homo sapiens) (P09923 whole entry, looked up): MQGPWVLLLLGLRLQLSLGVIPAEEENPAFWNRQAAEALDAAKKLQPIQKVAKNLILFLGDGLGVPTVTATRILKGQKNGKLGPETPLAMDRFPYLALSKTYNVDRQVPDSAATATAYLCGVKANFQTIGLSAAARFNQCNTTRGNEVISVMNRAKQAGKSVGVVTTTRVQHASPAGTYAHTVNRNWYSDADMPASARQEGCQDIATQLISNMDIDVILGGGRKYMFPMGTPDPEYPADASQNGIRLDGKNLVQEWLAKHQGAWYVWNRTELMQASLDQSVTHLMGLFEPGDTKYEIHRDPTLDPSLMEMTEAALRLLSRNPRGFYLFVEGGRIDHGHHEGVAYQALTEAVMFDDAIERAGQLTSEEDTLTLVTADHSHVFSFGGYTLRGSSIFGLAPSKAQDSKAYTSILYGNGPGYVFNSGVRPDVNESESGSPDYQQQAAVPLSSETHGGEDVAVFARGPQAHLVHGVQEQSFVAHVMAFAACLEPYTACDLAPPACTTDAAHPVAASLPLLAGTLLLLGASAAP

SMILES	IC50
O=C(N/N=C/c1c(F)cccc1F)c1ccc(O)cc1	> 100 µM (inactive)
O=C(N/N=C/c1cccc(Cl)c1Cl)c1cc(O)c(O)c(O)c1	64.3 µM
Cc1ccc(C)c(NC(=O)C2CCCN(S(=O)(=O)c3ccc4c(c3)oc(=O)n4C)C2)c1 (configuration not stated)	> 100 µM (inactive)
CC(C)c1ccc(NC(=O)C2CCCN(S(=O)(=O)c3ccc4c(c3)oc(=O)n4C)C2)cc1 (configuration not stated)	> 100 µM (inactive)
O=C(NN=Cc1ccccc1F)c1ccc(O)cc1	> 100 µM (inactive)
O=C(N/N=C/c1ccc(F)cc1F)c1ccc(O)cc1	> 100 µM (inactive)
O=C(N/N=C/c1cc(Br)ccc1F)c1ccc(O)cc1	> 100 µM (inactive)
CC(C)(C)c1ccc(/C=N/NC(=O)c2cc(O)c(O)c(O)c2)cc1	> 100 µM (inactive)
COc1ccc(C(=O)N/N=C/c2c(F)cccc2Cl)cc1OC	> 100 µM (inactive)
CSc1cccc(NC(=O)C2CCCN(S(=O)(=O)c3ccc4c(c3)oc(=O)n4C)C2)c1 (configuration not stated)	> 100 µM (inactive)
CCOc1cc(C(=O)N/N=C/c2c(F)cccc2Cl)cc(OCC)c1OCC	> 100 µM (inactive)
COc1cccc(/C=N/NC(=O)c2cc(O)c(O)c(O)c2)c1O	> 100 µM (inactive)
O=C(CCNS(=O)(=O)c1ccc2c(c1)CCC2)NCCc1ccc2c(c1)OCO2	> 100 µM (inactive)
Cc1ccc(C)c(NC(=O)CCNS(=O)(=O)c2ccc3ccccc3c2)c1	> 100 µM (inactive)
O=C(NCc1ccc(F)cc1)C1CCCN(S(=O)(=O)c2ccc3[nH]c(=O)oc3c2)C1 (configuration not stated)	> 100 µM (inactive)
O=C(N/N=C/c1ccc(Br)cc1F)c1cc(O)ccc1O	> 100 µM (inactive)
COc1ccc(/C=N/NC(=O)c2cc(O)c(O)c(O)c2)c(OC)c1	> 100 µM (inactive)
O=C(N/N=C/c1ccc(F)c(Br)c1)c1cc(O)c(O)c(O)c1	> 100 µM (inactive)
O=C(N/N=C/c1ccc(Cl)c(Cl)c1)c1cc(O)c(O)c(O)c1	> 100 µM (inactive)
CCc1ccc(NC(=O)C2CCCN(S(=O)(=O)c3ccc4c(c3)oc(=O)n4C)C2)cc1 (configuration not stated)	> 100 µM (inactive)

SMILES	IC50
O=C(N/N=C/c1ccccc1Cl)c1cc(O)c(O)c(O)c1	> 100 µM (inactive)
Cc1ccc(C)c(NC(=O)CCNS(=O)(=O)c2ccc3c(c2)CCC3)c1	> 100 µM (inactive)
O=C(N/N=C/c1c(F)cccc1Cl)c1ccc(O)cc1O	> 100 µM (inactive)
O=C(NCc1ccc2c(c1)OCO2)C1CCCN(S(=O)(=O)c2ccc3[nH]c(=O)oc3c2)C1 (configuration not stated)	> 100 µM (inactive)
O=C(CCS(=O)(=O)Nc1ccc2[nH]c(=O)oc2c1)NCc1ccccc1Cl	> 100 µM (inactive)
CC(C)c1ccc(/C=N/NC(=O)c2cc(O)c(O)c(O)c2)cc1	10.9 µM
CC(=NNC(=O)c1ccccc1OCCOc1ccccc1)c1ccccc1F	> 100 µM (inactive)
O=C(N/N=C/c1ccccc1F)c1ccc(O)cc1	> 100 µM (inactive)
Cc1ccc(CNC(=O)C2CCCN(S(=O)(=O)c3ccc4[nH]c(=O)oc4c3)C2)cc1 (configuration not stated)	> 100 µM (inactive)
O=C(N/N=C/c1ccccc1F)c1ccccc1OCc1ccccc1	> 100 µM (inactive)
O=C(N/N=C/c1c(F)cccc1Cl)c1ccc(O)cc1	> 100 µM (inactive)
CC(C)c1ccc(NC(=O)CCNS(=O)(=O)c2ccc3c(c2)oc(=O)n3C)cc1	> 100 µM (inactive)
O=C(CCNS(=O)(=O)c1ccc2ccccc2c1)NCCc1ccc2c(c1)OCO2	> 100 µM (inactive)
CN(C)c1ccc(CNC(=O)C2CCCN(S(=O)(=O)c3ccc4[nH]c(=O)oc4c3)C2)cc1 (configuration not stated)	> 100 µM (inactive)
C/C(=N\NC(=O)c1cc(O)c(O)c(O)c1)c1ccc(O)cc1O	> 100 µM (inactive)
O=C(N/N=C/c1ccccc1F)c1ccc(O)cc1O	> 100 µM (inactive)
O=C(N/N=C/c1c(Cl)cccc1Cl)c1cc(O)c(O)c(O)c1	> 100 µM (inactive)
Cc1ccccc1CNC(=O)C1CCCN(S(=O)(=O)c2ccc3[nH]c(=O)oc3c2)C1 (configuration not stated)	> 100 µM (inactive)
COc1ccc(C(=O)N/N=C/c2ccccc2F)cc1	> 100 µM (inactive)
CCOc1cc(C(=O)N/N=C/c2ccccc2F)cc(OCC)c1OCC	> 100 µM (inactive)

The next lines start with the values.

IC50	SMILES
> 100 µM (inactive)	COc1cccc(CNS(=O)(=O)c2ccc3[nH]c(=O)oc3c2)c1
> 100 µM (inactive)	COc1ccccc1CNC(=O)CCNS(=O)(=O)c1ccc2[nH]c(=O)oc2c1
> 100 µM (inactive)	COc1cccc(CNC(=O)CNS(=O)(=O)c2ccc3[nH]c(=O)oc3c2)c1
> 100 µM (inactive)	COc1ccc(NC(=O)CCCNS(=O)(=O)c2ccc3[nH]c(=O)oc3c2)c(OC)c1
> 100 µM (inactive)	COc1ccc(NC(=O)CCCNS(=O)(=O)c2ccc3[nH]c(=O)oc3c2)cc1OC
> 100 µM (inactive)	N#Cc1cccc(NS(=O)(=O)c2ccc3[nH]c(=O)oc3c2)c1
> 100 µM (inactive)	N#Cc1ccc(NC(=O)CNS(=O)(=O)c2ccc3[nH]c(=O)oc3c2)cc1
> 100 µM (inactive)	Cc1ccc(NC(=O)CCNS(=O)(=O)c2ccc3c(c2)oc(=O)n3C)cc1
> 100 µM (inactive)	Cc1cc(NC(=O)CCNS(=O)(=O)c2ccc3[nH]c(=O)oc3c2)ccc1Br
> 100 µM (inactive)	COc1ccc(CNC(=O)CNS(=O)(=O)c2ccc3[nH]c(=O)oc3c2)cc1
> 100 µM (inactive)	O=C(CCNS(=O)(=O)c1ccc2[nH]c(=O)oc2c1)Nc1ccc2c(c1)OCO2
> 100 µM (inactive)	COc1ccc(CNC(=O)CCNS(=O)(=O)c2ccc3c(c2)CCC3)c(OC)c1
> 100 µM (inactive)	O=C(CCNS(=O)(=O)c1ccc2[nH]c(=O)oc2c1)NCc1ccc(C(F)(F)F)cc1
> 100 µM (inactive)	COc1cccc(CNC(=O)CCNS(=O)(=O)c2ccc3[nH]c(=O)oc3c2)c1
> 100 µM (inactive)	O=C(CCCNS(=O)(=O)c1ccc2[nH]c(=O)oc2c1)NCCc1ccc(O)cc1
> 100 µM (inactive)	O=C(CCNS(=O)(=O)c1ccc2[nH]c(=O)oc2c1)NCc1cccc(C(F)(F)F)c1
> 100 µM (inactive)	O=C(CCNS(=O)(=O)c1ccc2[nH]c(=O)oc2c1)NCc1ccccc1F
> 100 µM (inactive)	COc1ccc(CNC(=O)CCNS(=O)(=O)c2ccc3[nH]c(=O)oc3c2)cc1
> 100 µM (inactive)	O=C(CCNS(=O)(=O)c1ccc2[nH]c(=O)oc2c1)NCc1ccc2c(c1)OCO2
> 100 µM (inactive)	O=C(CCNS(=O)(=O)c1ccc2[nH]c(=O)oc2c1)NCCc1ccc2c(c1)OCO2
> 100 µM (inactive)	O=C(CCNS(=O)(=O)c1ccc2[nH]c(=O)oc2c1)NCc1ccccc1
> 100 µM (inactive)	COc1ccc(CCNC(=O)CCCNS(=O)(=O)c2ccc3[nH]c(=O)oc3c2)cc1
> 100 µM (inactive)	CCOc1ccc(CNC(=O)C2CCCN(S(=O)(=O)c3ccc4[nH]c(=O)oc4c3)C2)cc1OC (configuration not stated)
> 100 µM (inactive)	O=C(CCNS(=O)(=O)c1ccc2[nH]c(=O)oc2c1)NCCc1ccc(O)cc1
> 100 µM (inactive)	Cc1ccc(C)c(NS(=O)(=O)c2ccc3[nH]c(=O)oc3c2)c1
> 100 µM (inactive)	COc1ccccc1CNC(=O)CCCNS(=O)(=O)c1ccc2[nH]c(=O)oc2c1

IC50	SMILES
18.1 µM	O=C(CCNS(=O)(=O)c1ccc2[nH]c(=O)oc2c1)NCc1ccc(O)c(O)c1
> 100 µM (inactive)	O=C(CCS(=O)(=O)Nc1ccc2[nH]c(=O)oc2c1)NCc1cccc(F)c1
> 100 µM (inactive)	O=C(CNS(=O)(=O)c1ccc2[nH]c(=O)oc2c1)NCCc1ccc2c(c1)OCO2
> 100 µM (inactive)	COc1ccc(NS(=O)(=O)c2ccc3[nH]c(=O)oc3c2)cc1OC
> 100 µM (inactive)	COc1ccc(CNC(=O)CCCNS(=O)(=O)c2ccc3[nH]c(=O)oc3c2)c(OC)c1
> 100 µM (inactive)	Cc1ccc(CNC(=O)CCNS(=O)(=O)c2ccc3[nH]c(=O)oc3c2)cc1
> 100 µM (inactive)	N#Cc1cccc(NC(=O)CNS(=O)(=O)c2ccc3[nH]c(=O)oc3c2)c1
> 100 µM (inactive)	O=C(CCNS(=O)(=O)c1ccc2[nH]c(=O)oc2c1)NCc1ccc(Cl)cc1
> 100 µM (inactive)	Cc1ccc(C)c(NC(=O)CNS(=O)(=O)c2ccc3[nH]c(=O)oc3c2)c1
> 100 µM (inactive)	O=C(CCNS(=O)(=O)c1ccc2[nH]c(=O)oc2c1)NCc1cccc(F)c1
> 100 µM (inactive)	Cc1ccc(NC(=O)CCNS(=O)(=O)c2ccc3[nH]c(=O)oc3c2)cc1C
> 100 µM (inactive)	N#Cc1cccc(CNC(=O)CCNS(=O)(=O)c2ccc3[nH]c(=O)oc3c2)c1
> 100 µM (inactive)	COc1ccc(CNS(=O)(=O)c2ccc3[nH]c(=O)oc3c2)cc1
> 100 µM (inactive)	COc1ccc(CNC(=O)CNS(=O)(=O)c2ccc3[nH]c(=O)oc3c2)c(OC)c1
> 100 µM (inactive)	O=c1[nH]c2ccc(S(=O)(=O)Nc3ccc4c(c3)OCO4)cc2o1
> 100 µM (inactive)	O=C(CCNS(=O)(=O)c1ccc2[nH]c(=O)oc2c1)NCc1ccccc1Cl
> 100 µM (inactive)	Cc1ccc(C)c(NC(=O)CCNS(=O)(=O)c2ccc3[nH]c(=O)oc3c2)c1
> 100 µM (inactive)	COc1ccc(CNC(=O)CCNS(=O)(=O)c2ccc3[nH]c(=O)oc3c2)c(OC)c1
> 100 µM (inactive)	CSc1cccc(NC(=O)CCNS(=O)(=O)c2ccc3c(c2)oc(=O)n3C)c1
> 100 µM (inactive)	COc1ccc(CNC(=O)CCCNS(=O)(=O)c2ccc3[nH]c(=O)oc3c2)cc1OC
> 100 µM (inactive)	COc1ccc(CNC(=O)CCNS(=O)(=O)c2ccc3ccccc3c2)c(OC)c1
> 100 µM (inactive)	O=C(CCCNS(=O)(=O)c1ccc2[nH]c(=O)oc2c1)NCc1ccc2c(c1)OCO2
> 100 µM (inactive)	O=C(CCCNS(=O)(=O)c1ccc2[nH]c(=O)oc2c1)NCc1ccccc1Cl
> 100 µM (inactive)	O=c1[nH]c2ccc(S(=O)(=O)NCCc3ccc4c(c3)OCO4)cc2o1
> 100 µM (inactive)	COc1ccc(NC(=O)CCNS(=O)(=O)c2ccc3[nH]c(=O)oc3c2)cc1OC
> 100 µM (inactive)	O=c1[nH]c2ccc(S(=O)(=O)NCc3ccc4c(c3)OCO4)cc2o1
